How the values were obtained:
DU4475 = experiment: In vitro potency (IC50) of Palbociclib on breast cancer cell line; format: cell-based; conditions: Homo sapiens, DU-4475, read-out: Observed IC50
Excerpt: (§1) Palbociclib, a targeted inhibitor of CDK4/6 indicated for breast cancer. Identification of Human Breast Cancer cell lines sensitive and resistant to Palbociclib using the method 300 for drug discovery and development, particularly for identification, selection and validation of Human Cancer Cell lines and Biomarkers based on Pharmacological Target(s). A comparison of Predicted Efficacy with Observed Efficacy in cell lines/patients is provided. The pharmacological target is Ser/Thr-kinase component of cyclin D-CDK4/6, which inhibits CDK4/6 phosphorylation of retinoblastoma (RB) protein family (RB1). The phenotypic end point of which is the inhibition of cell proliferation. Further, the Breast Cancer Cell Lines are selected based on the multi-omics and pathway regulator status. […] The predicted response (sensitivity or resistance to Palbociclib) was compared with cell line in vitro potency data (IC50) of Palbociclib. The predicted responses were in agreement with observed data (IC50) for Palbociclib's activity on various Human Breast Cancer cell lines. Table 6a and 6b show the comparison of predicted response values, for both sensitive and resistant to Palbociclib, with observed data.

EFM19 = experiment: as above; format: cell-based; conditions: Homo sapiens, EFM-19, read-out: Observed IC50
Excerpt: as §1

HCC1500 = experiment: as above; format: cell-based; conditions: Homo sapiens, read-out: Observed IC50
Excerpt: as §1

HCC1569 = experiment: as above; format: cell-based; conditions: Homo sapiens, read-out: Observed IC50
Excerpt: as §1

HCC2157 = experiment: as above; format: cell-based; conditions: Homo sapiens, read-out: Observed IC50
Excerpt: as §1

MCF7 = experiment: as above; format: cell-based; conditions: Homo sapiens, read-out: Observed IC50
Excerpt: as §1

MDAMB157 = experiment: as above; format: cell-based; conditions: Homo sapiens, MDA-MB-157, read-out: Observed IC50
Excerpt: as §1

MDAMB231 = experiment: as above; format: cell-based; conditions: Homo sapiens, MDA-MB-231, read-out: Observed IC50
Excerpt: as §1

MDAMB361 = experiment: as above; format: cell-based; conditions: Homo sapiens, MDA-MB-361, read-out: Observed IC50
Excerpt: as §1

MDAMB468 = experiment: as above; format: cell-based; conditions: Homo sapiens, MDA-MB-468, read-out: Observed IC50
Excerpt: as §1

[1] = test system: cell line population with amplified ABCB1; experiment: Response curves (IC50 values) of cell line populations, transporter amplified vs wildtype, vincristine; conditions: IC50 values for 530 cell lines from Cancerrx
Excerpt: (§2) The drug transporter identification module 205 allows identification of co-relating genomic factors such as factors affecting drug transporters, transporter genes, or any alterations therein such as transporter gene amplification including copy number alterations ([…]), increased m-RNA expressions, etc. particularly associated with multidrug resistance (MDR) development. The drug transporter identification module 205 allows identifying drug transporter factors that impact the efficacy of the drug of interest using in vitro sensitivity data, during pre-clinical phase of drug development. […] Drug transporters such as solute carrier (SLC) family and ATP-binding cassette (ABC) family are known to function as drug efflux pumps which contribute towards drug resistance and reduced bioavailability. The method, in various embodiments herein use in vitro sensitivity data in identification of MDR transporter genes during pre-clinical phase of drug development. In an embodiment, in vitro sensitivity data for chemo therapeutic drug, vincristine (particularly cell line-specific IC50 values for 530 cell lines), from cancerrx (database of genomics of drug sensitivity), and cell multi-omics characteristics, from Cancer Cell Line Encyclopedia (CCLE) were used as inputs for the stratification algorithm. […]

[2] = test system: cell line population with amplified ABCB4; experiment: as above; conditions: IC50 values for 530 cell lines from Cancerrx
Excerpt: as §2

IC50 (DU4475) [nM] | IC50 (EFM19) [nM] | IC50 (HCC1500) [nM] | IC50 (HCC1569) [nM] | IC50 (HCC2157) [nM] | IC50 (MCF7) [nM] | IC50 (MDAMB157) [nM] | IC50 (MDAMB231) [nM] | IC50 (MDAMB361) [nM] | IC50 (MDAMB468) [nM] | Compound | Efficacy in cell line population with ABCB1 amplification compared to wildtype (median of response curves) [1] | Efficacy in cell line population with ABCB4 amplification compared to wildtype (median of response curves) [2]
> 1000 | 27 | 45 | > 1000 | > 1000 | 148 | > 1000 | 432 | 44 | > 1000 | CC(=O)c1c(C)c2cnc(Nc3ccc(N4CCNCC4)cn3)nc2n(C2CCCC2)c1=O [Palbociclib] | – | –
– | – | – | – | – | – | – | – | – | – | CC[C@]1(O)C[C@H]2CN(CCc3c([nH]c4ccccc34)[C@@](C(=O)OC)(c3cc4c(cc3OC)N(C=O)[C@H]3[C@@](O)(C(=O)OC)[C@H](OC(C)=O)[C@]5(CC)C=CCN6CC[C@]43[C@@H]65)C2)C1 [vincristine] | lesser efficacy | lower efficacy
